For one molecule, Km results are on record in article PMC12364333, “Degradation of catecholate, hydroxamate, and carboxylate model siderophores by extracellular enzymes” (PLOS One, 2025).

In the assay the test system is T1, phenol oxidase (a tyrosinase).
T1 construct: gene PPO3
In words: initial rates of product formation ([…] h); Lineweaver-Burk plot. The assay is classed as biochemical, Agaricus bisporus. Particulars: O2 as oxidant; buffered at pH 7.0 (25 mM phosphate) and 20 °C in the general protocol; 0.01-1 mM protochelin; apo siderophore.

For `O=C(NCCCCNC(=O)[C@H](CCCCNC(=O)c1cccc(O)c1O)NC(=O)c1cccc(O)c1O)c1cccc(O)c1O` [protochelin], the Km is 430 µM.
